Measurements: US9351973B2, “Pyrazolopyridyl compounds as aldosterone synthase inhibitors” (Merck Sharp & Dohme Corp., priority 2011, dated 2016)

Tests used:
[1] = target: human CYP11B2 (Homo sapiens (Human), UniProt P19099); assay: V79-Human-CYP11B2 cell assay (aldosterone formation from 11-deoxycorticosterone, HTRF); assay type: cell-based; settings: for IC50: V79 cells stably expressing human CYP11B2, 125 nM 11-deoxycorticosterone, 3 hours
Protocol: (§1) Methods for V79-Human-CYP11B2 and V79-Human-CYP11B1 Assays: V79 cell lines stably expressing the either the human CYP11B2 or the human CYP11B1 enzyme were generated using a standard transfection protocol. V79 cells were transfected with plasmids pTriEx3-Hygro-hCyp11B2 or pTriEx3-Hygro-hCyp11B1 using Lipofectamine2000 reagent. V79 cells that stably express the human CYP11B2 or human CYP11B1 enzyme were selected for and maintained in DMEM supplemented with 10% FBS and 400 μg/mL hygromycin for ˜2 weeks. Single cell clones were generated by infinite dilution in DMEM supplemented with 10% FBS and 400 μg/mL hygromycin until single colonies were obtained. Clones V79-hCYP11B2-CLE9 and V79-hCYP11B1-8CLC7, were determined to produce the most aldosterone and cortisol, respectively, and were selected for inhibitor screening. For testing of inhibitors, cells were harvested at 80% confluency with 0.5% Trypsan-EDTA, washed once in PBS, and reconstituted in DMEM+0.1% BSA media at a cell concentration of 600,000 cells/mL for the CYP11B2 assay and 280,000 cells/mL for the CYP11B1 assay. 25 μL of cells were added to a 384 well tissue culture treated plate and mixed with 0.3 μL of inhibitor or DMSO (1% final DMSO concentration) for 1 hour at 37° C., 5% CO2. After pre-incubation with inhibitor, the reaction was initiated by adding 5 μL of substrate (final concentration of 125 nM 11-deoxycorticosterone for the CYP11B2 assay or 250 nM 11-deoxycortisol for the CYP11B1 assay). The reaction was carried out for 3 hours at 37° C., 5% CO2 and was stopped by harvesting the supernatants. The amount of product in the supernatant (aldosterone for CYP11B2 assay and cortisol for the CYP11B1 assay) was measured using HTRF-based assay kit (Aldosterone HTRF-CisBio#64ALDPEB, Cortisol HTRF-CisBio #63IDC002-CORT). IC50s for the inhibitor were determined by plotting the amount of product formed against the concentration of inhibitor using sigmoidal dose-response curve (variable slope) fit in GraphPad.

[2] = target: human CYP11B1 (Homo sapiens (Human), UniProt P15538); assay: V79-Human-CYP11B1 cell assay (cortisol formation from 11-deoxycortisol, HTRF); assay type: cell-based; settings: for IC50: V79 cells stably expressing human CYP11B1, 250 nM 11-deoxycortisol, 3 hours
Protocol: as §1

Sequence of human CYP11B1 (P15538 25-503): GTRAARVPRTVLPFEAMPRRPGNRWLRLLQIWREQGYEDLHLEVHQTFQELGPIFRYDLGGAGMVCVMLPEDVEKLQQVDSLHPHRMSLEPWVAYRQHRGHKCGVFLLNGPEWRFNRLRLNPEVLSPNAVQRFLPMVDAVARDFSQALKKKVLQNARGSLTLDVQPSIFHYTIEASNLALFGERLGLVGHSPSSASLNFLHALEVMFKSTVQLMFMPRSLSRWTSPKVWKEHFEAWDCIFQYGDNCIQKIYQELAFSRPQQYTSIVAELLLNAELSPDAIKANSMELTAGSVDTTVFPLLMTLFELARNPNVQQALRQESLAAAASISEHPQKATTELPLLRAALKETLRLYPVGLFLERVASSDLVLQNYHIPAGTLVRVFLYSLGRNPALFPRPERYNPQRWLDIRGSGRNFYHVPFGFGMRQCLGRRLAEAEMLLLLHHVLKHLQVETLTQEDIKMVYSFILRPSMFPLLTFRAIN
Sequence of human CYP11B2 (P19099 25-503): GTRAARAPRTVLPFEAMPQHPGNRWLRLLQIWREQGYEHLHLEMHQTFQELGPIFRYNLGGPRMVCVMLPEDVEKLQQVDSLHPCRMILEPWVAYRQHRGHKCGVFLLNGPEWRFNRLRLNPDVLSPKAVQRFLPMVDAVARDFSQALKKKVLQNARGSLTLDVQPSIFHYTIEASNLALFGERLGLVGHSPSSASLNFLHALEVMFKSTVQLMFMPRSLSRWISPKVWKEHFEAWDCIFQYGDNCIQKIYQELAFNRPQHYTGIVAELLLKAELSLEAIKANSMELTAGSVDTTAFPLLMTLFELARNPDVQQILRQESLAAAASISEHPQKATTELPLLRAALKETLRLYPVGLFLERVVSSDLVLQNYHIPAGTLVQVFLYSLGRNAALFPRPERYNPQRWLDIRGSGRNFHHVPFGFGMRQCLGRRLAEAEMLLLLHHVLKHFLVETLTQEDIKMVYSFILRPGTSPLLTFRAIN

| IC50 [1] | IC50 [2] | inhibition at 1 µM [1] | inhibition at 10 µM [2] | Structure (SMILES) |
| --- | --- | --- | --- | --- |
| 0.0022 µM | 0.282 µM |  |  | Cc1cncc(-c2nn3c(c2C)NC(=O)CC3)c1 [Example 7, 3-methyl-2-(5-methylpyridin-3-yl)-6,7-dihydropyrazolo[1,5-a]pyrimidin-5(4H)-one] |
|  | 1.07 µM | 51% |  | N#Cc1c(-c2cncc(Cl)c2)nn2c1NC(=O)CC2 [Example 26, 2-(5-chloropyridin-3-yl)-5-oxo-4,5,6,7-tetrahydropyrazolo[1,5-a]pyrimidine-3-carbonitrile] |
|  |  | 61% |  | Cc1cncc(-c2nn3c(c2C#N)NC(=O)CC3)c1 [Example 25, 2-(5-methylpyridin-3-yl)-5-oxo-4,5,6,7-tetrahydropyrazolo[1,5-a]pyrimidine-3-carbonitrile] |
| 0.0117 µM | 1.35 µM |  |  | CCc1c(-c2cncc(F)c2)nn2c1NC(=O)CC2 [Example 13, 3-ethyl-2-(5-fluoropyridin-3-yl)-6,7-dihydropyrazolo[1,5-a]pyrimidin-5(4H)-one] |
| 0.0309 µM | 3.63 µM |  |  | Cc1c(-c2cncc(F)c2)nn2c1NC(=O)CC2 [Example 15, 2-(5-fluoropyridin-3-yl)-3-methyl-6,7-dihydropyrazolo [1,5-a]pyrimidin-5(4H)-one] |
| 0.102 µM |  |  | 38% | O=C1CCn2nc(-c3cncc(F)c3)c(C3CC3)c2N1 [Example 19, 3-cyclopropyl-2-(5-fluoropyridin-3-yl)-6,7-dihydropyrazolo[1,5-a]pyrimidin-5(4H)-one] |
| 0.0132 µM |  |  | 71% | Cc1cncc(-c2nn3c(c2C2CC2)NC(=O)CC3)c1 [Example 10, 3-cyclopropyl-2-(5-methylpyridin-3-yl)-6,7-dihydropyrazolo[1,5-a]pyrimidin-5(4H)-one] |
| 0.0098 µM | 3.71 µM |  |  | Cc1cncc(-c2nn3c(c2C)N(C)C(=O)CC3)c1 [Example 8, 3,4-dimethyl-2-(5-methylpyridin-3-yl)-6,7-dihydropyrazolo[1,5-a]pyrimidin-5(4H)-one] |
| 0.0078 µM | 2.34 µM |  |  | CCc1c(-c2cncc(C)c2)nn2c1N(C)C(=O)CC2 [Example 9, 3-ethyl-4-methyl-2-(5-methylpyridin-3-yl)-6,7-dihydropyrazolo[1,5-a]pyrimidin-5(4H)-one] |
| 0.0191 µM | 1.82 µM |  |  | Cc1c(-c2cncc(F)c2)nn2c1N(C)C(=O)CC2 [Example 12, 2-(5-fluoropyridin-3-yl)-3,4-dimethyl-6,7-dihydropyrazolo[1,5-a]pyrimidin-5(4H)-one] |
